The record followed here is patent US11072596B2, “Poly(ADP-ribose) polymerase inhibitor, preparation method and use” (SELECTION BIOSCIENCE LLC, priority 2017, dated 2021).

Series [1] is described as follows: Liver microsomal stability in vitro, mouse. In kind it is in vitro ADME. As to conditions: pH 7.4; mouse liver microsomes 0.5 mg protein/mL, 1 μM test compound, 37° C.; read-out: Mouse T1/2. How it is done: Evaluation of in vitro liver microsomal stability of the compound of the present disclosure was tested by the following method:
Buffer: 100 mM potassium phosphate buffer, pH 7.4; […] MgCl2.
Liver microsomes: human liver microsomes, Corning Cat No. 452117; Rat liver microsomes, Xenotech Cat No. R1000; Mouse liver microsomes, Xenotech Cat No. M1000; Dog liver microsomes, Xenotech Cat No. D1000; Liver microsomes of cynomolgus monkey, Corning Cat No. 452413, the final concentration was 0.5 mg protein/mL.
1. Intermediate solution: 5 μL of compound or control in stock solution (10 mM) was diluted with 495 μL of methanol (concentration: 100 μM, 99% MeOH).
2. Operating solution: the intermediate solution was diluted […] with 450 μL 100 mM potassium phosphate buffer (concentration: 10 μM, 9.9% MeOH).
1. 10 μL of compound or control solution per well was added to all plates (T0, T5, T10, T20, T30, T60, NCF60) except matrix blank.
2. Microsome solution was distributed to 96-well plates according to platemap for standby, 680 μL per well, and the mixture of microsome solution and the compound was incubated at 37° C. for about 10 minutes.
4. […]
10. Data analysis: The peak area of the corresponding compound and internal standard was detected by LC-MS/MS, and the T1/2 of the compound was calculated by the following formula: […]
(In general: Microsomes from liver hold many membrane-bound enzymes, among them those of drug oxidation.)

For series [2], the system named is MDA-MB-436 cells. The experiment in a line: Pharmacodynamic study on mouse MDA-MB-436 model. In kind it is in vivo, BALB/c nude mice. Particulars: for T/C / TGI / Tumor volume (day 39) / Tumor volume (day 0): MDA-MB-436 in nude mice; for T/C / TGI / Tumor volume (day 39) / rate of test animals in which the tumor completely disappeared: 50 mg/kg PO x 18 days; for T/C / TGI / Tumor volume (day 39): day 39; for Tumor volume (day 0): day 0, before dosing; for rate of test animals in which the tumor completely disappeared: observed until the 39th day; for inhibitory effect on the tumor growth, in words: 50 mg/kg, continuous PO administration for 18 days. How it is done:
BALB/c nude mice, aged 6-8 weeks old, weighing 18-22 g, female, provided by Shanghai Lab Animal Research Center (Shanghai Xipuer-Beikai) with the animal certificate no: 20130016001914.
Human breast cancer MDA-MB-436 cells (ATCC, Manacas, Va., Article number (Art. No.): ATCC-HTB-130) were cultured in vitro in monolayer under the conditions of RPMI1640 medium with 10% fetal bovine serum and 37° C. 5% CO2 incubator. The passage was routinely digested with trypsin-EDTA twice a week. When the cell saturation was up to 80%-90% and reached the requirement, the cells were collected, counted and inoculated. 0.2 mL (1×10^7) MDA-MB-436 cells (added with matrix gel, volume ratio 1:1) were subcutaneously inoculated into the right back of each mouse, and mice were randomly grouped and dosed when the average tumor volume reached 157 mm^3.
2.5 g of methylcellulose was slowly added into 80 mL of deionized water in a suitable container under stirring, stirred until uniform, 10 mL of Tween 80 was added to the solution, stirred until uniform, continued to add deionized water to 500 mL, and stirred until uniform to obtain a vehicle solution. Then an appropriate amount of p-toluenesulfonate of example 23 was weighed, and an appropriate amount of the above vehicle solution was added and vortexed until uniform.
The subcutaneous tumor volumes of nude mice were measured 2-3 times a week, and the mice were weighed, and the data were recorded.
Experimental evaluation index: tumor growth inhibition rate TGI (%) or relative tumor proliferation rate T/C (%) was used for evaluation, wherein T was the experimental group, and C was the control group.
Calculation of relative tumor proliferation rate: If T>T0, T/C (%)=(T−T0)/(C−C0)×100%, if T<T0, T/C (%)=(T−T0)/T0×100%, wherein T and C were tumor volumes at the end of the experiment; T0 and C0 were tumor volumes at the beginning of the experiment.

The target in series [3] is T1, CYP2C19 (Homo sapiens, UniProt P33261).
T1 construct: from tissue; host or cells: human liver microsomes (HLM)
The experiment in a line: Inhibition of human liver microsomal CYP450 enzymes, CYP2C19. In kind it is in vitro ADME. Particulars: human liver microsomes, substrate S-Mephenytoin 35 μM; Reference = omeprazole; read-out: IC50 2C19. How it is done: The inhibitory effects of the compound of the present disclosure on the CYP450 enzymes of six human subtypes were determined by the following experimental method:
Reference compounds of each subtype: CYP1A2: α-naphthoflavone; CYP2C9: sulfaphenazole; CYP2C19: omeprazole; CYP3A4: ketoconazole; CYP2D6: quinidine.
Substrate concentration: CYP1A2: Phenacetin at 30 μM; CYP2C9: Diclofenac at 10 μM; CYP2C19: S-Mephenytoin at 35 μM; CYP3A4: Midazolam at 5 μM and Testosterone at 80 μM; CYP2D6: Bufuralol at 10 μM.
6. 0.2 mg/mL of HLM was added to the test wells, 400 μL per well, and then the gradient diluted 400× test compound was added to the corresponding wells.
7. 0.2 mg/mL of HLM was added to the test wells, 200 μL per well, and then the gradient-diluted reference inhibitor was added to the corresponding wells. Steps 6 and 7 needed to be performed on ice.
8.1. 30 μL of test compound and reference compound were mixed in 0.2 mg/mL of HLM solution (see steps 6 and 7).
8.2. 15 μL of 4× substrate solution (see step 4) was added.
10. Preheated 8 mM of NADPH solution was added to the 96-well test plate (see step 3) to initiate the reaction, 15 μL per well.
11. The test plate was incubated at 37° C.: 3A4 for 5 minutes, each of 1A2, 2C9 and 2D6 for 10 minutes, and 2C19 for 45 minutes.
12. ACN containing internal reference was added to stop the reaction, 120 μL per well.
14. […]

T1 sequence (P33261 whole entry): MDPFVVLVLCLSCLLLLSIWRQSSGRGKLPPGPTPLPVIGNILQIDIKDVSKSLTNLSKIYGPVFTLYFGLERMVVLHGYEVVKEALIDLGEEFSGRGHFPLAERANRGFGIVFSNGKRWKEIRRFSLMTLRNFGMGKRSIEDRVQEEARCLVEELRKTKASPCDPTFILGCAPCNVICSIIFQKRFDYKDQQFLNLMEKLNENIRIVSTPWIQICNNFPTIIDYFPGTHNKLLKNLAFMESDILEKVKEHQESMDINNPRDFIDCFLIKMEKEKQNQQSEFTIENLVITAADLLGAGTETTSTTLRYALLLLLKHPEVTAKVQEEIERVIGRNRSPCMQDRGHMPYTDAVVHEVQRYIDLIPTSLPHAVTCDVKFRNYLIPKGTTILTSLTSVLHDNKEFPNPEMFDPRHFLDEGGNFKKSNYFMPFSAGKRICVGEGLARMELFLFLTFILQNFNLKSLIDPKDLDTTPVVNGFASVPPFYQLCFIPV

A word on the IC50: it is the concentration that gives 50% inhibition. Take `NC(=O)c1cccc2cn(-c3ccc([C@]4(F)CCCNC4)cc3)nc12` (single isomer, unassigned) [Example 23, (R or S)-2-(4-(3-fluoropiperidin-3-yl)phenyl)-2H-indazole-7-carboxamide]: the half-life at 1 μM in series [1] worked out at 1.02 h. In series [2], the T/C was −68%, the TGI is recorded as 168%, the “Tumor volume (day 39)” value came to 49 mm^3 and the “Tumor volume (day 0)” value is recorded as 157 mm^3. Further, in series [2] (nude mouse MDA-MB-436 model, 50 mg/kg PO for 18 days), the “anti-tumor activity compared with positive control Niraparib, in words” value is reported as “stronger”. Also, in series [2] (nude mouse MDA-MB-436 model), the “rate of test animals in which the tumor completely disappeared” value stood at 50% and the “inhibitory effect on the tumor growth, in words” value is listed as “very strong inhibitory effect”. Moreover, the IC50 in series [3] was greater than 10 µM.
As for `NC(=O)c1cccc2cn(-c3ccc([C@@H]4CCCNC4)cc3)nc12` [Niraparib, reference compound], the half-life at 1 μM in series [1] came out at 1.83 h. Moreover, in series [2], the T/C is listed as 1.5%, the TGI is reported as 98.5%, the “Tumor volume (day 39)” value was found to be 187 mm^3 and the “Tumor volume (day 0)” value came out at 157 mm^3. For the same compound, in series [2] (nude mouse MDA-MB-436 model), the “rate of test animals in which the tumor completely disappeared” value is “zero” and the “inhibitory effect on the tumor growth, in words” value is “very strong inhibitory effect”. In series [3], the IC50 is greater than 10 µM.
